Assay results published in patent US12239134B2, “Plant antimicrobial compositions including an emulsifier and/or ozone and methods of use” (Arizona Board of Regents on Behalf of The University of …, priority 2018, dated 2025).

Columns and labels:
[1] = test system: Salmonella enterica serovar Newport SN78; assay: Ozone-plant antimicrobial wash of inoculated iceberg lettuce leaves; assay type: cell-based; conditions: ozonated wash
Method: Bacterial culture: Salmonella enterica serovar Newport SN78 (bovine isolate; provided by Dr. Marilyn Erickson, University of Georgia, Griffin, GA) was used for this experiment. Dual antibiotic resistance (100 μg/ml ampicillin and 25 μg/ml streptomycin, Amresco, Solon, OH) was developed in the strain through incremental antibiotic exposure. […] The frozen stock culture was initially revived through two transfers into brain heart infusion broth (BHIB) (Becton, Dickinson and Co (BD), Sparks, MD) followed by isolation on xylose lysine desoxycholate (XLD) agar (Becton, Dickinson and Co (BD), Sparks, MD) containing 100 μg/ml ampicillin and 25 μg/ml streptomycin.
Inoculum Preparation: For each experiment, a 20 hour overnight culture was prepared by inoculating 100 μl of the culture in 30 ml of tryptic soy broth (TSB) containing 100 μg/ml ampicillin and 25 μg/ml streptomycin and incubating at 37° C. in a desktop orbital shaker at 200 rpm (MaxQ 4450, Thermo Scientific, Dubuque, IA, USA). The cells in the medium were pelleted by centrifugation at 4000 g (Eppendorf Model 5810, Hamburg, Germany) and the supernatant was discarded. […]. The four outer leaves of the iceberg lettuce were removed and discarded. Whole leaf samples (10 g±0.5 g each) were used. The iceberg lettuce samples were inoculated by immersing 10 g portions into the PBS-S. Newport suspension for 2 minutes. After immersion, the excess culture suspension was allowed to drain from the leaf and the leaves were allowed to dry in a biohood for 1 hour to aid in the attachment of S. Newport to the leaf surface.
Antimicrobial wash solution preparation: The test plant-based antimicrobials used in this study consisted of oregano oil made from pure Origanum vulgare (Lhasa Karnak Company, Berkeley, California), its active component carvacrol (98% pure, molecular weight 150.2, CAS no. 499-75-2, Sigma, St. Louis, MO), olive extract (CreAgri, Hayward, CA), and quillaja saponin made from Quillaja saponaria (Sigma Aldrich, St. Louis, MO). […]

[2] = test system: mesophilic and psychrotrophic bacteria; conditions: 3 minutes (Kim et al. 1999); cited from earlier work
total plate counts = conditions: Wang et al. 2004; cited from earlier work

O=[O+][O-] [ozonized water, ozone]
reduction in S. Newport population on iceberg lettuce leaves ([1]; 60 min): 1.76±0.27 log CFU/g
reduction in S. Newport population on iceberg lettuce leaves ([1]; 90 min): 1.67±0.28 log CFU/g
reduction in S. Newport population on iceberg lettuce leaves ([1]; 120 min): 2.09±0.54 log CFU/g
decreased counts of mesophilic bacteria on shredded lettuce [2]: 1.4 log CFU/g
decreased counts of psychrotrophic bacteria on shredded lettuce [2]: 1.8 log CFU/g
total plate counts on cilantro leaves after treatment (total plate counts): did not decrease total plate counts
